“Also recorded” adds a separate entry of the source.
Experiments:
C57Bl mice = test: Toxicity of serine conjugates in mice in the absence of irradiation; assay type: in vivo, mouse; conditions: injections of up to 40 mg/kg body weight, up to 14 days, no irradiation
Method: (d) Toxicity of the Chl and Bchl-serine conjugates Chla-L-Ser-OMe and Bchla-L-Ser-OMe in C57Bl mice under normal housing conditions in the absence of irradiation was estimated by injection of the compound dissolved in 10% ethanol/PBS. Control mice were injected with the vehicle only. […] This dose of drug was thus far the highest used and LD50 vs. EC50 of treatment (margins of therapeutic index) have yet to be determined.

MR2 melanoma tumors = test: Photodynamic treatment of melanoma tumor implanted in CD1 nude mouse, MRI follow up; assay type: in vivo
Method: (a) Tumor implantation: M2R cells are routinely maintained as monolayers. The cells are scraped with the aid of a rubber policeman and suspended in normal saline, 1×10^6 cells/0.1 ml are injected subcutaneously on the flank or batch of C57Bl or CD1 nude male mice. […] A similar procedure is used in nude mice in which either mouse M2R or human (FO/1, MRI/H/221, HS695T amelanotic melanoma or SK/MEL/28) melanoma tumors are implanted.

[1] = test system: Staphylococcus Aureus Cowan I; assay type: cell-based
Method: Light source: All the phototoxicity assays were performed with a home-built Xenon lamp with vertical emission providing 140 mW/cm^2 at the target level, using glass or a Cr2K2O7 liquid filter transferring light at […].
Bacterial culture: Lyophilized Staphylococcus Aureus Cowan I, kindly provided by Prof. Z. Eshar, the Weizmann Institute, Israel were grown in liquid brain heart infusion (BHI) media for 18 hours at 37° C. with continuous shaking.
Phototoxicity experiments: The standard experimental design consisted of four discrete steps: (i) Pre-incubation: Fresh bacterial suspensions (200 μl) in 0.1M carbonate buffer, pH 8.6, were incubated with the test sensitizer and/or inhibitor at the indicated concentrations for 1 hour in the dark. (ii) Wash: Unbound sensitizer was removed by washing and resuspension in the same buffer (x3). (iii) Illumination: The bacterial suspensions were exposed to light (140 mW/cm^2, λ>550 nm) for 5 min. (iv) Assessment of survival: Samples of the bacterial suspensions (30 μl) were cultured in 2 ml of BHI liquid media at 37° C. (shaking) for 2 hr. Bacterial density was monitored by turbidity measurements at λ=660 nm, taking OD660=1 for 5×10^7 bacteria/ml. Each experiment consisted of one experimental and three control groups:
Experimental group: Bacteria were subjected to complete treatment (varying one experimental factor). Light control: irradiated bacteria, not treated with sensitizer. Dark control: non-irradiated bacteria, treated with sensitizer in the dark. Untreated control: values used for calculation of 100% survival.

cell cultures = conditions: cited from earlier work
[2] = in vivo; cited from earlier work
[3] = cited from earlier work

Compound: CC[C@H]1c2cc3[n-]c4c(c3C)C(=O)[C@H](C(=O)OC)c4c3nc(cc4[n-]c(cc(n2)[C@@H]1C)c(C(C)=O)c4C)[C@@H](C)[C@@H]3CCC(=O)OC[C@H](N)C(=O)OC.[Mg+2] [Bchla-L-Ser-OMe, L-seryl Methyl Ester Bacteriochlorophyllide a]
- effect on behavior and well being of mice (C57Bl mice): no noticeable effect on the behavior and well being of the mice
- tumor by MRI after first treatment (MR2 melanoma tumors; 50-150 μg into and around tumor, halogen light 60 min, 84 h later): essentially eliminated
- tumor recurrence by MRI after second treatment (MR2 melanoma tumors; after a second treatment (2-3 weeks later)): no recurrence
- tumor recurrence by MRI after first treatment (MR2 melanoma tumors; two weeks after first treatment): small recurrence; also recorded: some recurrence
- concentration of maximal phototoxicity [1]: 0.5 µM
- phototoxicity LD50 ([1]; as described in Example 17): 70 nM
- dark toxicity ([1]; no light, up to highest tested concentration (10 μM)): no detectable dark toxicity
- LD50 (phototoxicity in cell cultures) (cell cultures): 50 nM
- clearance from the animal body [2]: 16 h
- water solubility [3]: water soluble
